Target: T1, Human BCL-XL protein (N-terminal HiBiT tagged BCL-XL in HT1080 cells) (Homo sapiens, UniProt Q07817)
T1 construct: expressed in transfected cells; host or cells: HT-1080 (ATCC CCL-121), stably transduced with lentivirus pLV-UBC-N-HiBiT-BCL-XL-PGK-puro and selected with puromycin
Experiment: HiBiT based degradation assay
Assay type: cell-based
Conditions: HT1080 cells expressing N-terminal HiBiT tagged BCL-XL, normalized with DMSO control
Excerpt: HiBiT Based Degradation Assay
Human BCL-XL protein coding open reading frame fused with N-terminal HiBiT coding sequence was synthesized from Integrated DNA Technologies (IDT). Next, N-HiBiT-BCL-XL sequence was cloned into pLV-UBC-PGK-Puro, a lentivirus plasmid purchased from Vectorbuilder, to generate pLV-UBC-N-HiBiT-BCL-XL-PGK-puro. Lentiviral particles were generated from Lenti-X™ 293T cells (Clontech) by co-transfection of pLV-UBC-N-HiBiT-BCL-XL-PGK-puro plasmids and lentiviral packaging plasmid mix (Cellecta). HT-1080 [HT1080](ATCC CCL-121) cells were infected with the lentivirus, and HT1080 cells stably integrated with the lentiviral vectors were established by incubation with 1 μg/mL puromycin (Thermofisher).
HT1080 cells expressing N-terminal HiBiT tagged BCL-XL were dispensed into a 384-well plate pre-spotted with compounds at varying concentrations. Three thousand cells were seeded into each well in 40 μL of RPMI 1640 media. […] After incubation, luminescence was read on a PHERAstar FSX Plate Reader (BMG). BCL-XL degradation at each indicated concentration was normalized with the DMSO control. The BCL-XL degradation curves were plotted using a four-parameter logistic model. For compounds displaying hook effects, the curve fitting was performed using the bottom point of the hook curves (i.e., the point of Ymin) as the bottom plateau to calculate EC50.

T1 sequence (Q07817 whole entry): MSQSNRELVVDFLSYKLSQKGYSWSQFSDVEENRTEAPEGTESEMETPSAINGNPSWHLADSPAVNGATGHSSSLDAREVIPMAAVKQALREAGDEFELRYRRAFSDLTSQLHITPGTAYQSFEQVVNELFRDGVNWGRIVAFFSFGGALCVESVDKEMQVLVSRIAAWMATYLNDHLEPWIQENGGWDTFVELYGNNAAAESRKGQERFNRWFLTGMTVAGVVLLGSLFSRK

Compound	Ymin (24 h)	Ymin (6 h)
CC(=O)O[C@@H]1C[C@@H](C(=O)N[C@@H](C)c2ccc(-c3scnc3C)cc2)N(C(=O)[C@@H](NC(=O)C[C@H]2CC[C@H](Oc3cccc(-c4ccc(N5CCc6cccc(C(=O)Nc7nc8ccccc8s7)c6C5)nc4C(=O)O)c3C)CC2)C(C)(C)C)C1 [Compound 119a, 3-(3-(((1S,4r)-4-(2-(((S)-1-((2S,4R)-4-acetoxy-2-(((S)-1-(4-(4-methylthiazol-5-yl)phenyl)ethyl)carbamoyl)pyrrolidin-1-yl)-3,3-dimethyl-1-oxobutan-2-yl)amino)-2-oxoethyl)cyclohexyl)oxy)-2-methylphenyl)-6-(8-(benzo[d]thiazol-2-ylcarbamoyl)-3,4-dihydroisoquinolin-2 (1H)-yl)picolinic acid]	B (50% ≤ Ymin < 70%)	–
Cc1ncsc1-c1ccc([C@H](C)NC(=O)[C@@H]2C[C@@H](O)CN2C(=O)[C@@H](NC(=O)CCCCCCCCCn2nc(C)c(-c3ccc(N4CCc5cccc(C(=O)Nc6nc7ccccc7s6)c5C4)nc3C(=O)O)c2C)C(C)(C)C)cc1 [Compound 111a, 6-[8-(1,3-benzothiazol-2-ylcarbamoyl)-3,4-dihydro-1H-isoquinolin-2-yl]-3-[1-[10-[[(1S)-1-[(2S,4R)-4-hydroxy-2-[[(1S)-1-[4-(4-methylthiazol-5-yl)phenyl]ethyl]carbamoyl]pyrrolidine-1-carbonyl]-2,2-dimethyl-propyl]amino]-10-oxo-decyl]-3,5-dimethyl-pyrazol-4-yl]pyridine-2-carboxylic acid]	–	B (50% ≤ Ymin < 70%)
Cc1ncsc1-c1ccc([C@H](C)NC(=O)[C@@H]2C[C@@H](O)CN2C(=O)[C@@H](NC(=O)CCCc2ccc(Oc3cccc(-c4ccc(N5CCc6cccc(C(=O)Nc7nc8ccccc8s7)c6C5)nc4C(=O)O)c3C)cc2)C(C)(C)C)nc1 [Compound 121a, 6-[8-(1,3-benzothiazol-2-ylcarbamoyl)-3,4-dihydro-1H-isoquinolin-2-yl]-3-[3-[4-[4-[[(1S)-1-[(2S,4R)-4-hydroxy-2-[[(1S)-1-[5-(4-methylthiazol-5-yl)-2-pyridyl]ethyl]carbamoyl]pyrrolidine-1-carbonyl]-2,2-dimethyl-propyl]amino]-4-oxo-butyl]phenoxy]-2-methyl-phenyl]pyridine-2-carboxylic acid]	A (Ymin < 50%)	–
Cc1ncsc1-c1ccc([C@H](C)NC(=O)[C@@H]2C[C@@H](O)CN2C(=O)[C@@H](NC(=O)CN2CCC(CCCOc3cccc(-c4ccc(N5CCc6cccc(C(=O)Nc7nc8ccccc8s7)c6C5)nc4C(=O)O)c3C)CC2)C(C)(C)C)cc1 [Compound 124a, 6-[8-(1,3-benzothiazol-2-ylcarbamoyl)-3,4-dihydro-1H-isoquinolin-2-yl]-3-[3-[3-[1-[2-[[(1S)-1-[(2S,4R)-4-hydroxy-2-[[(1S)-1-[4-(4-methylthiazol-5-yl)phenyl]ethyl]carbamoyl]pyrrolidine-1-carbonyl]-2,2-dimethyl-propyl]amino]-2-oxo-ethyl]-4-piperidyl]propoxy]-2-methyl-phenyl]pyridine-2-carboxylic acid]	A (Ymin < 50%)	–
Cc1ncsc1-c1ccc([C@H](C)NC(=O)[C@@H]2C[C@@H](O)CN2C(=O)[C@@H](NC(=O)CCc2ccc(Oc3cccc(-c4ccc(N5CCc6cccc(C(=O)Nc7nc8ccccc8s7)c6C5)nc4C(=O)O)c3C)cc2)C(C)(C)C)cc1 [Compound 112a, 6-[8-(1,3-benzothiazol-2-ylcarbamoyl)-3,4-dihydro-1H-isoquinolin-2-yl]-3-[3-[4-[3-[[(1S)-1-[(2S, 4R)-4-hydroxy-2-[[(1S)-1-[4-(4-methylthiazol-5-yl)phenyl]ethyl]carbamoyl]pyrrolidine-1-carbonyl]-2,2-dimethyl-propyl]amino]-3-oxo-propyl]phenoxy]-2-methyl-phenyl]pyridine-2-carboxylic acid]	B (50% ≤ Ymin < 70%)	B (50% ≤ Ymin < 70%)
Cc1ncsc1-c1ccc([C@H](C)NC(=O)[C@@H]2C[C@@H](O)CN2C(=O)[C@@H](NC(=O)C[C@H]2CC[C@@H](Oc3cccc(-c4ccc(N5CCc6cccc(C(=O)Nc7nc8ccccc8s7)c6C5)nc4C(=O)O)c3C)CC2)C(C)(C)C)cc1 [Compound 116b, 6-(8-(benzo[d]thiazol-2-ylcarbamoyl)-3,4-dihydroisoquinolin-2 (1H)-yl)-3-(3-(((1R,4s)-4-(2-(((S)-1-((2S,4R)-4-hydroxy-2-(((S)-1-(4-(4-methylthiazol-5-yl)phenyl)ethyl)carbamoyl)pyrrolidin-1-yl)-3,3-dimethyl-1-oxobutan-2-yl)amino)-2-oxoethyl)cyclohexyl)oxy)-2-methylphenyl)picolinic acid]	B (50% ≤ Ymin < 70%)	–
Cc1ncsc1-c1ccc([C@H](C)NC(=O)[C@@H]2C[C@@H](O)CN2C(=O)[C@@H](NC(=O)Cc2ccc(Oc3cccc(-c4ccc(N5CCc6cccc(C(=O)Nc7nc8ccccc8s7)c6C5)nc4C(=O)O)c3C)cc2)C(C)(C)C)cc1 [Compound 113a, 6-[8-(1,3-benzothiazol-2-ylcarbamoyl)-3,4-dihydro-1H-isoquinolin-2-yl]-3-[3-[4-[2-[[(1S)-1-[(2S,4R)-4-hydroxy-2-[[(1S)-1-[4-(4-methylthiazol-5-yl)phenyl]ethyl]carbamoyl]pyrrolidine-1-carbonyl]-2,2-dimethyl-propyl]amino]-2-oxo-ethyl]phenoxy]-2-methyl-phenyl]pyridine-2-carboxylic acid]	A (Ymin < 50%)	A (Ymin < 50%)

The next lines start with the values.

Ymin (24 h)	Ymin (6 h)	Compound
B (50% ≤ Ymin < 70%)	–	Cc1ncsc1-c1ccc(CNC(=O)[C@@H]2C[C@@H](O)CN2C(=O)[C@@H](NC(=O)C2(F)CC2)C(C)(C)SCCCCCCCCCCCCOc2cccc(-c3ccc(N4CCc5cccc(C(=O)Nc6nc7ccccc7s6)c5C4)nc3C(=O)O)c2C)cc1 [Compound 142a]
A (Ymin < 50%)	–	Cc1ncsc1-c1ccc(CNC(=O)[C@@H]2C[C@@H](O)CN2C(=O)[C@@H](NC(=O)C2(F)CC2)C(C)(C)SCCCCCCCCCOc2cccc(-c3ccc(N4CCc5cccc(C(=O)Nc6nc7ccccc7s6)c5C4)nc3C(=O)O)c2C)cc1 [Compound 141a]
A (Ymin < 50%)	–	Cc1ncsc1-c1ccc([C@H](C)NC(=O)[C@@H]2C[C@@H](O)CN2C(=O)[C@@H](NC(=O)CC[C@@H](C)c2ccc(Oc3cccc(-c4ccc(N5CCc6cccc(C(=O)Nc7nc8ccccc8s7)c6C5)nc4C(=O)O)c3C)cc2)C(C)(C)C)cc1 (single isomer, unassigned) [Compound 129b]
A (Ymin < 50%)	–	Cc1ncsc1-c1ccc([C@H](C)NC(=O)[C@@H]2C[C@@H](O)CN2C(=O)[C@@H](NC(=O)CC[C@H](c2ccc(Oc3cccc(-c4ccc(N5CCc6cccc(C(=O)Nc7nc8ccccc8s7)c6C5)nc4C(=O)O)c3C)cc2)C(F)(F)F)C(C)(C)C)cc1 (relative stereo) [Compound 135b, 6-(8-(benzo[d]thiazol-2-ylcarbamoyl)-3,4-dihydroisoquinolin-2 (1H)-yl)-3-(2-methyl-3-(4-((R)-1,1,1-trifluoro-5-(((S)-1-((2S,4R)-4-hydroxy-2-(((S)-1-(4-(4-methylthiazol-5-yl)phenyl)ethyl)carbamoyl)pyrrolidin-1-yl)-3,3-dimethyl-1-oxobutan-2-yl)amino)-5-oxopentan-2-yl)phenoxy)phenyl)picolinic acid]
